Experimental data reported in ChEMBL document CHEMBL4680211, “Synthesis and structure-activity relationship study of water-soluble carbazole sulfonamide derivatives as new anticancer agents” (Eur J Med Chem, 2020).

Experiments:
[1] = AUC (0 to last) in Sprague-Dawley rat assessed as N-(2,6-dimethoxypyridin-3-yl)-7-hydroxy-9-methyl-9H-carbazole-3-sulfonamide level at 2.5 mg/kg, iv; assay type: ADME, organism-based; parameters: route intravenous, time 0 - last, dose 2.5 mg/kg; conditions: in vivo
[2] = Terminal half life in Sprague-Dawley rat assessed as N-(2,6-dimethoxypyridin-3-yl)-7-hydroxy-9-methyl-9H-carbazole-3-sulfonamide level at 2.5 mg/kg, iv; assay type: ADME, organism-based; conditions: in vivo
[3] = MRT (0 to last) in Sprague-Dawley rat assessed as N-(2,6-dimethoxypyridin-3-yl)-7-hydroxy-9-methyl-9H-carbazole-3-sulfonamide level at 2.5 mg/kg, iv; assay type: ADME, organism-based; conditions: in vivo
[4] = test system: HepG2; test: Antiproliferative activity against human HepG2 cells measured after 48 hrs by SRB assay; assay type: functional, cell-based; conditions: Homo sapiens, HepG2, 48 h
[5] = Cmax in Sprague-Dawley rat assessed as N-(2,6-dimethoxypyridin-3-yl)-7-hydroxy-9-methyl-9H-carbazole-3-sulfonamide level at 2.5 mg/kg, iv; assay type: ADME, organism-based; parameters: route intravenous, dose 2.5 mg/kg; conditions: in vivo
[6] = test system: Bel-7402; test: Antiproliferative activity against human Bel-7402 cells measured after 48 hrs by SRB assay; assay type: functional, cell-based; conditions: Homo sapiens, Bel-7402, 48 h
[7] = test system: MCF7; test: Antiproliferative activity against human MCF7 cells measured after 48 hrs by SRB assay; assay type: functional, cell-based; conditions: Homo sapiens, MCF7, 48 h
[8] = Tmax in Sprague-Dawley rat assessed as N-(2,6-dimethoxypyridin-3-yl)-7-hydroxy-9-methyl-9H-carbazole-3-sulfonamide level at 2.5 mg/kg, iv; assay type: ADME, organism-based; conditions: in vivo

SMILES: COc1ccc(NS(=O)(=O)c2ccc3c(c2)c2ccc(O)cc2n3C)c(OC)n1
- AUClast [1]: 15295 ng·h/mL
- beta t1/2 [2]: 1.8 h
- MRTlast [3]: 1.27 h
- IC50 [4]: 12 nM
- Cmax [5]: 22333 ng/mL
- IC50 [6]: 56 nM
- IC50 [7]: 14 nM
- Tmax [8]: 5 min
